Source: patent US9155814B2, “Nanostructured material formulated with bone cement for effective antibiotic delivery” (priority 2009, dated 2015)

Assay: In vitro drug release study in PBS buffer
Assay type: physicochemical
Conditions: for percentage released: over 70 days, MSN functionalized bone cement loaded with gentamicin and ibuprofen, FIG. 14; for percentage released from the bone cement: MSN-formulated bone cement loaded with gentamicin and indomethacin, FIG. 15, 80 days stated for gentamicin; for amount released as a percentage to the amount loaded: after 80 days, MSN-functionalized bone cement loaded with gentamicin and vancomycin, FIG. 13; for gentamicin released: FIG. 8
Experimental: The drug release study was conducted by socking two cylinder samples of each composition in 5 ml PBS buffer (pH 7.4). The sample was put in an incubator shaker operated at 37° C. and 40 rpm. The release medium was withdrawn at predetermined time intervals, and replaced with fresh PBS buffer (5 ml) each time. The accumulative amount of gentamicin released was calculated based on the initial weight of bone cement cylinder and the drug content. The gentamicin release was followed for 80 days.
The o-phthaldialdehyde was used as a derivatizing agent to react with the amino groups of gentamicin and yield chromophoric products. The reaction was carried out making 1 ml of our problem gentamicin in solution react with 1 ml of isopropanol (to avoid the precipitation of the products formed) and 1 ml of o-phthaldialdehyde reagent. After fully mixed, the concentration of gentamicin sulfate was determined by the UV absorbance at 332 nm.
The concentration of ibuprofen, vancomycin and indomethacin was directly determined by UV-vis detection without the presence of reactive reagent.

Compound | percentage released | percentage released from the bone cement | amount released as a percentage to the amount loaded | gentamicin released when loaded alone (MSN-functionalized bone cement, gentamicin alone) | gentamicin released (SmartSet HV composite bone cement with 2 wt % of MSN) | gentamicin released (SmartSet HV composite bone cement with 6.0 wt % of MSN)
CC(C)Cc1ccc(C(C)C(=O)O)cc1 (stereo not drawn) [ibuprofen] | 47% | – | – | – | – | –
COc1ccc2c(c1)c(CC(=O)O)c(C)n2C(=O)c1ccc(Cl)cc1 [indomethacin] | – | 15% | – | – | – | –
CN[C@H](CC(C)C)C(=O)N[C@H]1C(=O)N[C@@H](CC(N)=O)C(=O)N[C@H]2C(=O)N[C@H]3C(=O)N[C@H](C(=O)N[C@H](C(=O)O)c4cc(O)cc(O)c4-c4cc3ccc4O)[C@H](O)c3ccc(c(Cl)c3)Oc3cc2cc(c3O[C@@H]2O[C@H](CO)[C@@H](O)[C@H](O)[C@H]2O[C@H]2C[C@](C)(N)[C@H](O)[C@H](C)O2)Oc2ccc(cc2Cl)[C@H]1O [vancomycin] | – | – | 31% | – | – | –
gentamicin | 90% | 51% | 40.8% | 70% | much lower | more than 55%
